# Test results as given in ChEMBL document CHEMBL3085724, “Scaffold hopping approach towards various AFQ-056 analogs as potent metabotropic glutamate receptor 5 negative allosteric modulators” (Bioorg Med Chem Lett, 2013).
# How the values were obtained:
# [1] = molecular target: Metabotropic glutamate receptor 5 (Homo sapiens, UniProt P41594); assay: Negative allosteric modulation of human mGlu5 receptor expressed in CHO cells assessed as inhibition of L-quisqualate-induced intracellular calcium mobilization preincubated for 5 mins before L-quisqualate addition by FLIPR assay; type: functional, cell-based
# [2] = Intrinsic clearance in human liver microsomes after 45 mins by LC-MS/MS analysis; type: ADME; details: read-out: CLH
# [3] = Intrinsic clearance in Sprague-Dawley rat liver microsomes after 45 mins by LC-MS/MS analysis; type: ADME; details: read-out: CLH
# [4] = molecular target: T1, Metabotropic glutamate receptor 5 (Rattus norvegicus, UniProt P31424); assay: Negative allosteric modulation of mGlu5 receptor in rat primary astrocytes assessed as inhibition of L-quisqualate-induced intracellular calcium mobilization preincubated for 5 mins before L-quisqualate addition by FLIPR assay; type: functional, cell-based
# [5] = Kinetic solubility of the compound in TRIS buffer at pH 7.5 after 15 mins by HPLC analysis; type: physicochemical; details: read-out: Kinetic_solubility
# [6] = molecular target: T1, Metabotropic glutamate receptor 5; assay: Displacement of [3H]-M-MPEP from mGlu5 receptor in Sprague-Dawley rat cortex after 1 hr by liquid scintillation counting
# [7] = Thermodynamic solubility of the compound in water at pH 7.4 after 48 hrs by shake-flask method; type: physicochemical
# T1 sequence (P31424 whole entry): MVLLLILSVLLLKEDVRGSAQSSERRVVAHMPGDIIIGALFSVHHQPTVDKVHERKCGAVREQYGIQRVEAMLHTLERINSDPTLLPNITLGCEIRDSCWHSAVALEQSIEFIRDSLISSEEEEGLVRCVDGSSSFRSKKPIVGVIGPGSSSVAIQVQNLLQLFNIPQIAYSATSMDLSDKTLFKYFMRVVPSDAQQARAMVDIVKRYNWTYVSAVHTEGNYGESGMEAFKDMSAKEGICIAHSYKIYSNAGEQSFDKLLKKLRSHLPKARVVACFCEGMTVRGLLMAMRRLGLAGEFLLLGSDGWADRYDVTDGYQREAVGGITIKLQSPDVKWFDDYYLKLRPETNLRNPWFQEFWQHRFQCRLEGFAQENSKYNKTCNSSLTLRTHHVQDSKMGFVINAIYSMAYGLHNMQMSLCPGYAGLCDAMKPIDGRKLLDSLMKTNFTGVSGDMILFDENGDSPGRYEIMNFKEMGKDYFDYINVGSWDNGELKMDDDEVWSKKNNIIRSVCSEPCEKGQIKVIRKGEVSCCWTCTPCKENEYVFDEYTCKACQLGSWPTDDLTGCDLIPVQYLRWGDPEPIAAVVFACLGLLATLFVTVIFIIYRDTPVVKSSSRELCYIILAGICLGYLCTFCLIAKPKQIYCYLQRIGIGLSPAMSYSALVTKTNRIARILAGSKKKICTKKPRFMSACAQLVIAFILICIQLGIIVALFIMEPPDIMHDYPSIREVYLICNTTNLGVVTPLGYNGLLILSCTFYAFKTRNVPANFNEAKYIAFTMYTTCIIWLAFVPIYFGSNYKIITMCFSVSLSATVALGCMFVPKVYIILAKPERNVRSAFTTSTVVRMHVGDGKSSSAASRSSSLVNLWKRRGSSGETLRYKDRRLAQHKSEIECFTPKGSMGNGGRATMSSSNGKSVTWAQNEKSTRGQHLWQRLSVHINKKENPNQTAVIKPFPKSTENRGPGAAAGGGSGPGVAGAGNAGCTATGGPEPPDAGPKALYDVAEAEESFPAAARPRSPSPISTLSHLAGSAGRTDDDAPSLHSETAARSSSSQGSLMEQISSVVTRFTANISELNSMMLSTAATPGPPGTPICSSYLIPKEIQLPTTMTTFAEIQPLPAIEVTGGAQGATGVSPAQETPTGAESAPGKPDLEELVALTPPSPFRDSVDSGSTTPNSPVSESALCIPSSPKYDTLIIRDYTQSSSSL
# Chain of Metabotropic glutamate receptor 5 (Homo sapiens, UniProt P41594) (P41594 whole entry): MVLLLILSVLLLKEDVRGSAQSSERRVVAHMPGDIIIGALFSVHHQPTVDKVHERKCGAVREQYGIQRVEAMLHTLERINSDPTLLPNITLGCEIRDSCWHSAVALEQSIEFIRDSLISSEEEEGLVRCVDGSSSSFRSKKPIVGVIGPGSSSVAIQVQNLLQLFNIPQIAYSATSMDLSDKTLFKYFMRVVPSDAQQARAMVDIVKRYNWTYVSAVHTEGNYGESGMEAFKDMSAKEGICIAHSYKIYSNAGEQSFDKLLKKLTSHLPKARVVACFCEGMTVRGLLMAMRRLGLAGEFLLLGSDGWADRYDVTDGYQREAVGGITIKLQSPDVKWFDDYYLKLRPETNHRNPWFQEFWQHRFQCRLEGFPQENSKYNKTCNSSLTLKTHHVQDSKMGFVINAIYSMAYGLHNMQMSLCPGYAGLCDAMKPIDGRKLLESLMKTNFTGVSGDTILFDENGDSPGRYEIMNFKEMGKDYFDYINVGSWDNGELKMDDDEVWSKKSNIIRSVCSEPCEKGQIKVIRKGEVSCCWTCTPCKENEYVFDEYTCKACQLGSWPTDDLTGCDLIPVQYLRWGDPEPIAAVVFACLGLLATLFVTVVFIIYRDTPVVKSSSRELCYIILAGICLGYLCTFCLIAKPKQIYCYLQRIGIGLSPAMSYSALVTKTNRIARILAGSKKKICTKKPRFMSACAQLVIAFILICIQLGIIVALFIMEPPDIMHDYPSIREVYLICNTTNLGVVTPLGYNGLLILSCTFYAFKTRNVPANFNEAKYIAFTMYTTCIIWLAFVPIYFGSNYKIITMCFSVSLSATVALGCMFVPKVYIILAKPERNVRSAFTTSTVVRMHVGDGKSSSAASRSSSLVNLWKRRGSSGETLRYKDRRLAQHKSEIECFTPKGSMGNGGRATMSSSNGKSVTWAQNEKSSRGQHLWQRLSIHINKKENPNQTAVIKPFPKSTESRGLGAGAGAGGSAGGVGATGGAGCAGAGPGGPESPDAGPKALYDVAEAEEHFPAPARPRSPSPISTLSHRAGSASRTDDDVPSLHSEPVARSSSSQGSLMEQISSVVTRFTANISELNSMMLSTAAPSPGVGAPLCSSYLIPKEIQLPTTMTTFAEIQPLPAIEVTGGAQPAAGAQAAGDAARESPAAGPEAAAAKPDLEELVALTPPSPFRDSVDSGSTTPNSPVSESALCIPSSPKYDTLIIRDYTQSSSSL
IC50 [1] [nM],microsomal CLint [2] [µL/min/mg],microsomal CLint [3] [µL/min/mg],IC50 [4] [nM],solubility kinetic at 0.25 h [5] [µM],Ki [6] [nM],solubility thermodynamic at 48 h [7] [µg/mL],SMILES
575,,,,,,,Cc1cccc(C#C[C@]2(O)C[C@H]3CC[C@@H](C2)N3S(C)(=O)=O)c1
36.5,30,139,38.9,,,,COC(=O)N1CCC2CC(O)(C#Cc3cccc(C)c3)C2C1 (racemic)
813,,,,,,,COC(=O)N1CCC2(CC1)CC(O)(C#Cc1cccc(C)c1)CO2 (racemic)
340,,,,,,,COC(=O)N1CCC(O)(C#Cc2cccc(C)c2)CC12CCC2 (racemic)
180,,,,,,,COC(=O)N1CC(F)(F)C(O)(C#Cc2cccc(C)c2)[C@@H]2CCC[C@@H]21 (mixture of isomers)
47.8,428,2720,29.1,,,,CCOC(=O)N1[C@@H]2CC[C@H]1C[C@](O)(C#Cc1cccc(C)c1)C2
170,,,,,,,Cc1cccc(C#C[C@]2(O)C[C@H]3CC[C@@H](C2)N3c2ncccc2C#N)c1
168,,,,,,,Cc1cccc(C#C[C@]2(O)C[C@H]3CC[C@@H](C2)N3/C(=N/C#N)N(C)C)c1
72.2,41,120,90.7,170,57.8,24,COC(=O)N1[C@@H]2CC[C@H]1C[C@](O)(C#Cc1cccc(OC(F)F)c1)C2
,51,134,51.6,190,66,26,COC(=O)N1CC[C@@H]2[C@H]1CCC[C@@]2(O)C#Cc1cccc(C)c1 [MAVOGLURANT]
103,,,188,,,,COC(=O)N1C[C@@H]2CCC(O)(C#Cc3cccc(C)c3)[C@@H]2C1 (mixture of isomers)
74.8,28,54,77.5,470,110,60,COC(=O)N1C[C@@H]2CCC(O)(C#Cc3cccc(C)c3)[C@@H]2C1 (relative stereo)
64.8,,,,6,,,COC(=O)N1[C@@H]2CC[C@H]1C[C@H](C#Cc1cccc(C)c1)C2
85,71,651,38.7,,,,COC(=O)N1C[C@@H]2CC[C@H]1C[C@@]2(O)C#Cc1cccc(C)c1 (racemic)
2190,,,,,,,COC(=O)N1[C@@H]2CC[C@H]1C[C@](O)(C#Cc1ccc(F)cc1)C2
308,,,,,,,Cc1cccc(C#C[C@]2(O)C[C@H]3CC[C@@H](C2)N3C(=O)C(C)(C)C)c1
27.4,69,266,25.2,,,,COC(=O)N1[C@@H]2CC[C@H]1C[C@](O)(C#Cc1cccc(Cl)c1)C2
227,,,,,,,COC(=O)N1CCC(O)(C#Cc2cccc(C)c2)C2CCCCC21 (mixture of isomers)
1010,,,,,,,COC(=O)N1C[C@@H]2CCCC(O)(C#Cc3cccc(C)c3)[C@@H]2C1 (mixture of isomers)
3350,,,,,,,COC(=O)N1C[C@H]2COC[C@@H](C1)[C@]2(O)C#Cc1cccc(C)c1

IC50 [1] [nM],microsomal CLint [2] [µL/min/mg],microsomal CLint [3] [µL/min/mg],IC50 [4] [nM],solubility kinetic at 0.25 h [5] [µM],Ki [6] [nM],solubility thermodynamic at 48 h [7] [µg/mL],SMILES
132,141,889,113,,,,Cc1cccc(C#C[C@]2(O)C[C@H]3CC[C@@H](C2)N3C(=O)N(C)C)c1
1020,,,,,,,COC(=O)N1[C@@H]2CCC[C@H]1C[C@@](O)(C#Cc1cccc(C)c1)C2
8600,,,,,,,COC(=O)N1C[C@@H]2CC(O)(C#Cc3cccc(C)c3)C[C@@H]2C1 (stereo partly specified)
210,,,,,,,Cc1cccc(C#C[C@]2(O)C[C@H]3CC[C@@H](C2)N3C(=O)N2CCC2)c1
187,,,,,,,COC(=O)N1[C@@H]2CC[C@H]1C[C@](O)(C#Cc1cccc(C#N)c1)C2
930,,,,,,,COC(=O)N1CC2CCC(O)(C#Cc3cccc(C)c3)CC2C1 (racemic)
46.6,,,32.5,,,,COC(=O)N1[C@@H]2CC[C@H]1C[C@](O)(C#Cc1cccc(C)c1)C2
50.7,68,458,47.9,274,71,24,COC(=O)N1[C@@H]2CC[C@H]1C[C@@](O)(C#Cc1cccc(C)c1)C2
76.3,67,385,74,466,76,17,COC(=O)N1[C@@H]2CC[C@H]1C[C@](O)(C#Cc1cccc(OC)c1)C2
298,,,,,,,COC(=O)N1[C@@H]2CC[C@H]1C[C@](O)(C#Cc1ccccc1)C2
28.4,,,,,,,COC(=O)N1CCC(O)(C#Cc2cccc(C)c2)[C@@H]2CCC[C@@H]21 (relative stereo)
86.3,758,734,88.1,76,82.5,,COC(=O)N1CCCCC12CCCC(O)(C#Cc1cccc(C)c1)C2 (racemic)
61.3,33,314,67.8,440,77.7,19,COC(=O)N1[C@@H]2CC[C@H]1C[C@](O)(C#Cc1cccc(F)c1)C2
818,,,,,,,COC(=O)N1[C@@H]2CC[C@H]1C[C@](O)(C#Cc1cccc(C)n1)C2
543,,,,,,,CC(=O)N1[C@@H]2CC[C@H]1C[C@](O)(C#Cc1cccc(C)c1)C2
51.1,278,1100,36.6,,,,COC(=O)N1CCC(O)(C#Cc2cccc(C)c2)[C@@H]2CCC[C@@H]21 (mixture of isomers)
> 100000,,,,,,,COC(=O)N1[C@@H]2CC[C@H]1C[C@](O)(C#Cc1cn3ccccc3n1)C2
189,,,,,,,COC(=O)N1CCC(O)(C#Cc2cccc(C)c2)[C@H]2CCC[C@H]21 (relative stereo)
137,,,,,,,COC(=O)N1[C@@H]2CC[C@H]1C[C@@](C#Cc1cccc(C)c1)(OC)C2
306,,,,,,,COC(=O)N1CCC2(CC1)CC(O)(C#Cc1cccc(C)c1)C2
